Measurements: article PMC2680759, “Non-Invasive Molecular Imaging of Fibrosis Using a Collagen-Targeted Peptidomimetic of the Platelet Collagen Receptor Glycoprotein VI” (PLoS ONE, 2009)
Bridges are numbered along the chain shown (N, C = ends). Where no end group is shown, it is not given here.

What was measured:
[1] = system: collagen in sections of rat aorta and tail tendon; assay: Histochemical analysis of rat aorta and tail tendon sections; conditions: frozen sections of rat aorta and tail tendon, biotin-peptide 200 µg/mL, HRP-coupled streptavidin
Protocol: Sections were counter-stained with hematoxylin-eosin (Merck). Collagen was stained using picrosirius red. Sections ([…]) of rat tail tendon were processed as above.

type III collagen = molecular target: T1, type III collagen (Homo sapiens, UniProt P02461); assay: Solid phase assay, type III collagen; format: binding; conditions: biotin-peptide 50 µg/mL, microtitration plate, n = 3
T1 sequence (P02461 154-1221 limits assumed): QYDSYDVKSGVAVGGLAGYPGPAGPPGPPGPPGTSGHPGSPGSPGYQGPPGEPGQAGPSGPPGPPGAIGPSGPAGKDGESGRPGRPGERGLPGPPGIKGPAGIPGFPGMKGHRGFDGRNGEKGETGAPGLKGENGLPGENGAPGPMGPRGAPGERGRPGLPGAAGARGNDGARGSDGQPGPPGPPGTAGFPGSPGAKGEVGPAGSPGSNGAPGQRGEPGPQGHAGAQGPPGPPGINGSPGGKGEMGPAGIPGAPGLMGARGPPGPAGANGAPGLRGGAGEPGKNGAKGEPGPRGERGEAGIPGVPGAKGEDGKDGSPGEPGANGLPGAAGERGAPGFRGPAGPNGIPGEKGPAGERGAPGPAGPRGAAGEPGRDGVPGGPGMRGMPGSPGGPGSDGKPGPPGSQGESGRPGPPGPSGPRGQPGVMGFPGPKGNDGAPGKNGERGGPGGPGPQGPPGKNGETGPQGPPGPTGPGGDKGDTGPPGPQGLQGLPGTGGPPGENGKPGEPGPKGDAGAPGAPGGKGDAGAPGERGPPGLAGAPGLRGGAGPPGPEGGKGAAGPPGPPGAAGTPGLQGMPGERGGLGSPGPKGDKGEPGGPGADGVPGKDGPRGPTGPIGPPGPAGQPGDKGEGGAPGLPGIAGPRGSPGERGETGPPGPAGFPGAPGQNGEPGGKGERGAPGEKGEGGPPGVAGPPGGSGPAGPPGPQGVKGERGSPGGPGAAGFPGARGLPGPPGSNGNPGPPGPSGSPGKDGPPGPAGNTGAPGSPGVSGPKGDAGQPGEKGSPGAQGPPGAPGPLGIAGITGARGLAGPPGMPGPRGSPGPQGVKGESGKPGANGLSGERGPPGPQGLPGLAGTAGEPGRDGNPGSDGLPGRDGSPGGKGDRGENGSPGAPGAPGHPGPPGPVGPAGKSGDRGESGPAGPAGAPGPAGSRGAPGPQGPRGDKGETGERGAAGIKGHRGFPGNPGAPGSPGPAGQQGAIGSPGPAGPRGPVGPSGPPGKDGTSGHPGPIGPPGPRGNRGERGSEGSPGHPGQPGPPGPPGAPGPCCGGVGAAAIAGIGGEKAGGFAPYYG

[2] = system: collagen fibers of the infarct scars; assay: Post mortem autoradiography of frozen myocardial sections; format: in vivo, rat; conditions: 99mTc-streptavidin-coupled peptides
Protocol: After sacrificing the animals, the heart was removed and frozen, then 20-micrometer thick myocardial sections were cut perpendicular to the short axis of the ventricles in a cryostat, and exposed in a radioimager for 16 h. According to calibration studies performed with activity standards of tissue-equivalent homogenates, 50 counts/mm^2 of ^99m Tc-labeled tracers corresponded to ∼210 kBq/mg in autoradiography. The myocardial sections used for autoradiography, and contiguous heart sections (5 µm) fixed in acetone (−20°C), were stained with hematoxylin-eosin, Masson's trichrome and picrosirius red to determine the location and extent of the fibrotic myocardial scarring.

platelet function = assay: Effect on platelet function; conditions: stated in discussion, no method given
[3] = system: collagen rich lesions of fibrotic lungs; assay: Histochemical analysis of healthy and fibrotic lung sections; parameters: species or system mouse; conditions: paraffin embedded lung sections of bleomycin-treated mice, HRP-coupled streptavidin
Protocol: Figure 6 Imaging of lung fibrosis. A: Paraffin embedded sections of lungs from a bleomycin-treated mice were incubated with B-collagelin and detected using HRP-coupled streptavidin. Sections were counter-stained with hematoxylin. Contiguous serial sections were stained with picrosirius red. Representative images are shown. B: Whole body planar scintigraphy of a bleomycin-treated mouse (left) and a control mouse (right). Representative images acquired one hour after the injection of 99mTc-collagelin are shown. C: Corresponding lung autoradiography and histology (picrosirius staining) showing the colocalisation of 99mTc-collagelin with fibrosis. D: Lung autoradiogaphy and histology from a mice treated with the control 99mTc-Pc.

[4] = system: fibrotic myocardial infarction scar; format: in vivo, rat; conditions: rat, in vivo
Protocol: Myocardial infarction of the left ventricle was induced in rats as follows. Male Wistar rats (CERJ, France) were housed in a controlled environment and fed with a standard rat chow. Myocardial infarction of the left ventricle was induced by ligature of the left descending coronary artery performed under general anesthesia [1 mL.kg^−1 i.p. ketamine (Imalgene 500, Merial) and 0.5 mL.kg^−1 i.p. xylazine (Rompun, Bayer)] and positive pressure ventilation, as described. This protocol was performed under a permit from the French Veterinary Services Directorate.
Two types of control animals were used: healthy rats, and healthy rats which had undergone a simple throracotomy (sham-operated). ^99mTc-biotin-collagelin blood kinetics and biodistribution were investigated by counting blood samples (taken from a jugular catheter) for 6 h after i.v. injection, and organs (extracted after sacrifice) 2 h after injection in a gamma-counter, together with aliquots of the injected preparation (CobraII, Packard, Meriden, USA). Ex vivo myocardial labeling and isotopic imaging were performed 4 weeks after the coronary ligature (or throracotomy), when the lesions had had the time to heal.
For in vivo experiments, radiotracers (70 MBq) were administered i.v. to anesthetized animals (pentobarbital i.p. 6 mg/100 g BW, Ceva Santé Animale, France) within 2 h of radiolabeling. Scintigraphic images were obtained 0–2 h, 4 h, 6 h, 10 h and 24 h after injecting ^99mTc-streptavidin-biotin peptides and 0–3 h after injecting ^99mTc-biotinylated peptides. Planar and tomographic 1-h acquisitions were performed using a dedicated small animal γIMAGER system (Biospace Lab, Paris, France) equipped with 2 parallel low-energy high-resolution collimators (matrix 128×128, 15% energy window centered on 140 KeV). Tracer uptake in the left cardiac area was assessed visually. Two regions of interest were drawn on the scintigrams, over the heart and over the right lung. The mean activity (cpm) per pixel was determined in each region of interest. Then heart-to-lung activity ratios (HLR) were calculated on both planar and transversal tomographic images.

Binding to immobilized type III collagen (type III collagen)	Compound	Histochemical staining of tissue collagen [1]	Autoradiographic labeling of the infarct scar ([2]; frozen myocardium sections 6-8 hours after injection)	Mean infarct-to-remote myocardium radioactivity ratio ([2]; rats with MI, mean±SEM, p<0.006)	Effect on platelet function (platelet function)	Histochemical staining of lung sections [3]	Accumulation of the tracer in the skin of the animals [4]	Uptake in bone marrow [4]
did not bind	SGSGCGPQGARGLTGASAGGPC (disulfide 5-22 (inferred)) [reference compound]	not	little or no uptake	1.82±0.32	–	–	–	–
bound	CSCC[C@@H]1NC(=O)[C@H](C(C)C)NC(=O)[C@H](CCCNC(=N)N)NC(=O)CNC(=O)[C@@H]2CCCN2C(=O)[C@@H](NC(=O)CNC(=O)[C@H](CO)NC(=O)CNC(=O)[C@H](CO)NC(=O)CCCC[C@@H]2SC[C@@H]3NC(=O)N[C@@H]32)CSSC[C@@H](C(N)=O)NC(=O)[C@@H]2CCCN2C(=O)CNC(=O)[C@H](CCC(=O)O)NC(=O)[C@H](CC(=O)O)NC(=O)[C@H](CC(=O)O)NC(=O)CNC(=O)[C@H](CC(C)C)NC(=O)[C@H](Cc2c[nH]cn2)NC(=O)[C@H](CC(C)C)NC(=O)CNC(=O)[C@H](Cc2c[nH]cn2)NC1=O [collagelin]	–	–	–	no effect	coincided with the collagen rich lesions	did not notice any accumulation	low level
